These results are taken from US20050233413A1, “Neuroprotective polypeptides and methods of use” (priority 2002, published 2005).

In data set [1] the test system is F11 cells transfected with V642I-APP, NL-APP, M146L-PS1 or N141I-PS2 cDNA. The data set is classed as cell-based, rat/mouse hybrid. The note with it: each of V642I-APP, read-out: IC50 of suppression of neuronal cell death by FAD genes. The source says:
F11 cells, the hybrid of a rat embryonic-day-13 primary cultured primary neuron and a mouse neuroblastoma cell, are one of the best models for primary cultured neurons as they carry representative characteristics of primary neurons, such as generation of action potentials without differentiation by NGF [22]. They have been used in various studies of is neuronal functions. Using these cells, the underlying mechanisms for cytotoxicity by V642I-APP have well been analyzed. Cytotoxicity by V642 mutants of APP has also been confirmed in multiple different systems. F11 cells were grown in Ham's F-12 (GibcoBRL, Gaithersburg, Md.) plus 18% fetal bovine serum (FBS; Hyclone, Logan, Utah) and antibiotics, as described previously. F11 cells (7×10^4 cell/well in a 6-well plate cultured in Ham's F-12 plus 18% FBS for 12-16 hr) were transfected with plasmids encoding FAD genes by lipofection [FAD cDNA 2 μg, LipofectAMINE 4 μl, PLUS reagent 8 μl (GibcoBRL)] in the absence of serum for 3 hr, and were incubated with Ham's F-12 plus 18% FBS for 2 hr. Then, culture media were changed to Ham's F-12 plus 10% FBS with or without HN peptides, and cells were cultured for an additional 67 hr. Seventy-two hr after transfection, cell mortality was measured by Trypan blue exclusion assay, performed as follows. Cells were suspended by pipetting gently, and 50 μl of 0.4% (finally 0.08%) Trypan blue solution (Sigma, St Louis, Mo.) was mixed with 200 μl of the cell suspension at room temperature. Stained cells were counted within 3 min after the mixture with Trypan blue solution.

Data set [2] has as its system Aβ and four FAD genes (V642I-APP, NL-APP, M146L-PS1, and N141I-PS2). The class given is cell-based. The note with it: Table 5, marked *. The procedure, abridged: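 Rat/mouse hybrid F11 neuronal cells were transfected with FAD genes, then cultured 67 h with or without HN peptides; mortality was scored by Trypan blue exclusion 72 h post-transfection. Mouse primary cortical neurons were preincubated 16 h with HN, exposed to 25 μM Aβ for 72 h, and viability measured by WST-8 (OD450) and Calcein-AM fluorescence.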

Data set [3] in a line: Apparent stability of peptides in the culture medium. The class given is physicochemical. The note with it: 72-hr incubation of 10 μM peptides in the cultured medium; data not shown. The source says:
The Ser^7 residue plays a role different from that of Ser^14. S7A substitution nullified the action of HN, while Ser^7 racemation had no influence. […] Given the fact that EFLIVIKS or EFLIVKS is the established amino acid sequence to form a dimer and that EFLIVIKS alone had no cytoprotective action, it is most likely that Ser^7 is essential for HN to self-dimerize and that self-dimerization of HN is essential for the action of HN. […] This level of stability alterations could not account for the drastic potentiation of the rescue action by the fusion with EFLIVIKS.

The target in data set [4] is T1, HN (self-dimerization) (Homo sapiens, UniProt Q8IVG9).
T1 construct: host or cells: chemically synthesised peptide (no expression host)
T1 sequence (Q8IVG9 whole entry): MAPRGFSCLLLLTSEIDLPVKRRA
The experiment in a line: Dimerization experiment (Ni-bead precipitation of FLAG-tagged peptide by (His)6-tagged peptide). The data set is classed as binding. The note with it: excess amounts of competitor. As for the experimental part: (§1) Synthetic (His)6-tagged HN derivative peptides (1 nmol) was incubated with 20 μl of Ni-NTA agarose (QIAGEN, Hilden, Germany) in a total volume of 0.5 ml of buffer A [20 mM Tris/HCl (pH8.0) and 1 mM DTT] for 1 hr at 4° C. and washed once with buffer B [20 mM Tris/HCl (pH 7.4), 1 mM DTT, and 150 mM NaCl]. Synthetic FLAG-tagged peptides (1 nmol) were mixed with the beads immobilizing (His)6-tagged peptides in a total volume of 0.5 ml of buffer B for 2 hr at 4° C. on a rotating shaker, and washed three times with buffer B. The washed beads were mixed with 20 μl of 2× sampling buffer [100 mM Tris/HCl (pH6.8), 200 mM DTT, 4% (w/v) SDS, 0.2% bromophenol blue, and 20% (v/v) glycerol] and boiled. The supernatant was submitted to Tris/Tricine SDS-PAGE, followed by immunoblotting analysis with 1/5000 anti-FLAG monoclonal antibody M2 (Sigma).

Data set [5] deals with primary cultured neurons treated with 25 μM Aβ1-43. The note with it: as described previously [16]; read-out: IC50 of the HNG action against Aβ1-43-induced neuronal death; cited from earlier work.
Data set [6] has as its target T2, (His)6-(S7A)HN.
T2 construct: Synthetic peptide, immobilised on Ni-NTA agarose; also called His-S7A
T2 peptide: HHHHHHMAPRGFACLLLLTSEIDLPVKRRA
The experiment in a line: Ni-bead pull-down, anti-FLAG immunoblot. As for the experimental part:
as §1, with “(His)₆-tagged” for “(His)6-tagged”
Synthetic (His)₆-HN was mixed with synthetic HN-FLAG, and precipitated by Ni-beads. The precipitate was examined with an anti-FLAG antibody for HN-FLAG. […] Under the same conditions, (S7A)HN-FLAG was not precipitated by (His)₆-(S7A)HN. EF-(S7A)HN-FLAG was precipitated by (His)₆-EF-(S7A)HN as efficiently as HN-FLAG precipitation by (His)₆-HN.

Where no end group is shown, it is not given here.

Broadly, the IC50 is the concentration at which inhibition is half-maximal. Consider “MAPRGFSCLLLLTGEIDLPVKRRA [HNG, reference compound]”, for which the IC50 was ~0.03 nM in data set [1] and ~0.5 nM in data set [5]. The “Full protection (minimal concentration that exerted full cytoprotection)” value in data set [2] is given as “˜10 nM”. Also, in data set [3], the “amount of peptide relative to the amount at time zero” value is listed as “about ⅔”. In data set [4], the “effect of excess competitor on HN-FLAG precipitation by (His)6-HN” value is “abolished”.

B1: (S7A)HN-DYKDDDDK (S7A-FLAG) (peptide)
peptide: MAPRGFACLLLLTSEIDLPVKRRADYKDDDDK
notes: Synthetic C-terminally FLAG-tagged peptide; also called (S7A)HN-FLAG
Turning to B1, the binding result in data set [6] is on record as “no binding (tested: 1 nmol of each peptide in 0.5 ml)”.
